Assay results: PubChem BioAssay AID330 (DTP/NCI, 2004)
Several values for one entry are separate records, joined by “and”; a condition that tells them apart may be missing. Equal values may be shown once. Inconclusive results and toxic doses are left out. The calls were made as follows: active = survival T/C of 150% or more; inactive = T/C below 125% in these data.

Tested on: P388 leukemia ip, CD2F1 mice, survival T/C
Test: NCI In Vivo Anticancer Drug Screen. Data for tumor model P388 Leukemia (intraperitoneal) in CD2F1 (CDF1) mice
Conditions: endpoint: median survival time, higher = longer survival
Summary of the method: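 Mice carrying the transplanted tumor received test compound or vehicle. Survival was recorded in each group, and the value is the treated-group measurement divided by that of the vehicle-treated control group.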

[1] = dose: 50.0 mg/kg/injection, schedule: Q01DX009 (ip), vehicle: suspension in saline
[2] = dose: 100.0 mg/kg/injection, schedule: Q01DX009 (ip), vehicle: suspension in saline
[3] = dose: 200.0 mg/kg/injection, schedule: Q01DX009 (ip), vehicle: suspension in saline
[4] = dose: 50.0 mg/kg/injection, schedule: Q01DX009 (ip), vehicle: saline with Tween-80
[5] = dose: 100.0 mg/kg/injection, schedule: Q01DX009 (ip), vehicle: saline with Tween-80
[6] = dose: 200.0 mg/kg/injection, schedule: Q01DX009 (ip), vehicle: saline with Tween-80
[7] = dose: 60.0 mg/kg/injection, schedule: Q01DX005 (ip), vehicle: saline with Tween-80
[8] = dose: 120.0 mg/kg/injection, schedule: Q01DX005 (ip), vehicle: saline with Tween-80
[9] = dose: 240.0 mg/kg/injection, schedule: Q01DX005 (ip), vehicle: saline with Tween-80
[10] = dose: 50.0 mg/kg/injection, schedule: Q01DX005 (ip), vehicle: saline with Tween-80
[11] = dose: 100.0 mg/kg/injection, schedule: Q01DX005 (ip), vehicle: saline with Tween-80
[12] = dose: 200.0 mg/kg/injection, schedule: Q01DX005 (ip), vehicle: saline with Tween-80
[13] = dose: 25.0 mg/kg/injection, schedule: Q01DX005 (ip), vehicle: saline with Tween-80
[14] = dose: 50.0 mg/kg/injection, schedule: Q04DX003 (ip), vehicle: saline
[15] = dose: 100.0 mg/kg/injection, schedule: Q04DX003 (ip), vehicle: saline
[16] = dose: 50.0 mg/kg/injection, schedule: Q01DX005 (ip), vehicle: Klucel (hydroxypropylcellulose) (HPC)
[17] = dose: 100.0 mg/kg/injection, schedule: Q01DX005 (ip), vehicle: Klucel (hydroxypropylcellulose) (HPC)
[18] = dose: 200.0 mg/kg/injection, schedule: Q01DX005 (ip), vehicle: Klucel (hydroxypropylcellulose) (HPC)

Measured: T/C

O=C(O)Cc1c[nH]c2cc(Cl)cc(Cl)c12
inactive: dose: 100.0 mg/kg/injection, schedule: Q04DX002 (ip), vehicle: saline with Tween-80 101 % of control | dose: 200.0 mg/kg/injection, schedule: Q04DX002 (ip), vehicle: saline with Tween-80 104 % of control | dose: 400.0 mg/kg/injection, schedule: Q04DX002 (ip), vehicle: saline with Tween-80 101 % of control

O=[N+]([O-])c1ccc(/C=C/Br)o1
inactive: [1] 88 % of control | [2] 95 % of control | [3] 103 % of control

COc1ccc(-c2sc(C)nc2O)cc1
inactive: [4] 101 % of control | [5] 94 % of control | [6] 98 % of control

COc1cc(C2C(C(C)=O)=C(C)Oc3cc4c(cc32)OCO4)cc(OC)c1OC (centres undefined)
inactive: dose: 30.0 mg/kg/injection, schedule: Q01DX005 (ip), vehicle: saline with Tween-80 89 % of control | [7] 87 % of control and 89 % of control | [8] 90 % of control | [9] 87 % of control

[Cu+2].[O-]c1ccc(Br)c2cccnc12.[O-]c1ccc(Br)c2cccnc12
inactive: dose: 12.5 mg/kg/injection, schedule: Q01DX009 (ip), vehicle: saline with Tween-80 104 % of control | dose: 25.0 mg/kg/injection, schedule: Q01DX009 (ip), vehicle: saline with Tween-80 100 % of control | dose: 33.0 mg/kg/injection, schedule: Q04DX003 (ip), vehicle: saline with Tween-80 90 % of control | [4] 104 % of control

CN(CO)N=Nc1ccc(C(F)(F)F)cc1
inactive: [10] 96 % of control | [11] 113 % of control | [12] 113 % of control

CCCCCCCCCC(O)C(O)C1CCC(C2CCC(C(O)CCCCCCCCCCCCC3=CC(C)OC3=O)O2)O1 (centres undefined)
inactive: dose: 0.35 mg/kg/injection, schedule: Q01DX005 (ip), vehicle: Klucel (hydroxypropylcellulose) (HPC) 103 % of control and 97 % of control | dose: 0.7 mg/kg/injection, schedule: Q01DX005 (ip), vehicle: Klucel (hydroxypropylcellulose) (HPC) 100 % of control and 99 % of control | dose: 1.4 mg/kg/injection, schedule: Q01DX005 (ip), vehicle: Klucel (hydroxypropylcellulose) (HPC) 112 % of control and 100 % of control | dose: 2.8 mg/kg/injection, schedule: Q01DX005 (ip), vehicle: Klucel (hydroxypropylcellulose) (HPC) 106 % of control and 113 % of control

CC(=O)n1c(Cl)c(C=O)c2ccccc21
inactive: dose: 100.0 mg/kg/injection, schedule: Q01DX001 (ip), vehicle: Klucel (hydroxypropylcellulose) (HPC) 99 % of control | dose: 200.0 mg/kg/injection, schedule: Q01DX001 (ip), vehicle: Klucel (hydroxypropylcellulose) (HPC) 99 % of control | dose: 400.0 mg/kg/injection, schedule: Q01DX001 (ip), vehicle: Klucel (hydroxypropylcellulose) (HPC) 100 % of control

COC(=O)C(CCCCNC(=O)OCc1ccccc1)NC(=O)C(CCCCNC(=O)OCc1ccccc1)NC(=O)OC(C)(C)C (centres undefined)
inactive: dose: 6.25 mg/kg/injection, schedule: Q01DX005 (ip), vehicle: saline with Tween-80 100 % of control | dose: 12.5 mg/kg/injection, schedule: Q01DX005 (ip), vehicle: saline with Tween-80 97 % of control | [13] 97 % of control

CC1=Nc2cc(N)nn2C(=O)C1
inactive: [13] 93 % of control | [10] 96 % of control | [11] 102 % of control | [12] 93 % of control

O=c1c(-c2ccccc2)nc2ccccc2n1CC1CCCN2CCCC[C@H]12 (some centres undefined)
inactive: [7] 99 % of control | [8] 97 % of control | [9] 102 % of control

C1=CCONC1
inactive: [14] 93 % of control | [15] 104 % of control | dose: 200.0 mg/kg/injection, schedule: Q04DX003 (ip), vehicle: saline 92 % of control

O=C(COc1ccc(Cl)cc1Cl)Nc1ccccc1C(=O)c1ccccc1
inactive: [4] 101 % of control | [5] 101 % of control | [6] 94 % of control

CC(=O)N(c1ccccc1)c1ccccc1[N+](=O)[O-]
inactive: dose: 50.0 mg/kg/injection, schedule: Q01DX009 (ip), vehicle: saline 87 % of control | dose: 100.0 mg/kg/injection, schedule: Q01DX009 (ip), vehicle: saline 86 % of control | dose: 200.0 mg/kg/injection, schedule: Q01DX009 (ip), vehicle: saline 86 % of control

OCCN1CCN(CCCN2c3cc(Cl)ccc3Sc3ccsc32)CC1
inactive: [16] 97 % of control | [17] 97 % of control

O=c1c2ccccc2nc(C(F)(F)F)n1CCc1c[nH]c2ccccc12
inactive: [16] 93 % of control | [17] 92 % of control | [18] 98 % of control

COc1ccc(CC(C#N)c2ccc(OC)cc2)cc1 (centres undefined)
inactive: dose: 50.0 mg/kg/injection, schedule: Q01DX009 (ip), vehicle: Klucel (hydroxypropylcellulose) (HPC) 111 % of control and 96 % of control | dose: 100.0 mg/kg/injection, schedule: Q01DX009 (ip), vehicle: Klucel (hydroxypropylcellulose) (HPC) 100 % of control and 96 % of control | dose: 200.0 mg/kg/injection, schedule: Q01DX009 (ip), vehicle: Klucel (hydroxypropylcellulose) (HPC) 99 % of control and 93 % of control

Cn1c2c(F)cccc2c(=O)c2c(O)cc3c(c21)C=CC(C)(C)O3
inactive: [16] 96 % of control | [17] 91 % of control | [18] 94 % of control

COc1cccc(/C=N/NC(=O)N/N=C/c2cccc(OC)c2O)c1O
inactive: [4] 92 % of control | [5] 100 % of control | [6] 101 % of control | dose: 400.0 mg/kg/injection, schedule: Q01DX009 (ip), vehicle: saline with Tween-80 95 % of control

CN1NC(c2ccccc2)=C(C#N)C(=O)CC1c1ccccc1 (centres undefined)
inactive: [7] 96 % of control | [8] 95 % of control | [9] 104 % of control

CC1CC2(CC(CN(C3CCCCC3)C3CCCCC3)OC2=O)C(=O)O1 (centres undefined)
inactive: [10] 104 % of control | [11] 102 % of control | [12] 96 % of control

NCCN.NCCN.NCCN.[Cl-].[Pt]
inactive: dose: 1.56 mg/kg/injection, schedule: Q01DX009 (ip), vehicle: saline 101 % of control | dose: 3.13 mg/kg/injection, schedule: Q01DX009 (ip), vehicle: saline 101 % of control | dose: 6.25 mg/kg/injection, schedule: Q01DX009 (ip), vehicle: saline 107 % of control | dose: 12.5 mg/kg/injection, schedule: Q01DX009 (ip), vehicle: saline 99 % of control

N#Cc1ccc(NC(=O)Nc2nccs2)cc1
inactive: dose: 12.5 mg/kg/injection, schedule: Q01DX009 (ip), vehicle: distilled water + Tween-80 108 % of control | dose: 25.0 mg/kg/injection, schedule: Q01DX009 (ip), vehicle: distilled water + Tween-80 117 % of control

Cc1oc(C)c(-c2ccccc2)c1C(=O)N1CCN(C)CC1
inactive: [7] 98 % of control | [8] 98 % of control

CCSSC1(C)C(=O)N2CCCC2C(=O)N1C (centres undefined)
inactive: dose: 25.0 mg/kg/injection, schedule: Q04DX003 (ip), vehicle: saline 109 % of control | [14] 103 % of control | [15] 104 % of control

O=c1ccnc(Sc2ncccc2[N+](=O)[O-])[nH]1
inactive: dose: 100.0 mg/kg/injection, schedule: Q04DX003 (ip), vehicle: saline with Tween-80 100 % of control | dose: 200.0 mg/kg/injection, schedule: Q04DX003 (ip), vehicle: saline with Tween-80 100 % of control | dose: 400.0 mg/kg/injection, schedule: Q04DX003 (ip), vehicle: saline with Tween-80 100 % of control

O=C(NCCCC1NC(=O)/C(=C(O)/C=C/C=C/c2ccccc2)C1=O)OCc1ccccc1 (centres undefined)
inactive: [10] 88 % of control | [12] 92 % of control

O=C1CCSC(=S)N1c1ccc(Br)c(Cl)c1
inactive: [1] 116 % of control | [2] 116 % of control | [3] 106 % of control

COc1ccc(CC2c3cc(OC)c(OC)c(OC)c3CC[N+]2(C)C)cc1Oc1ccc(CC2c3cc4c(c(OC)c3CCN2C)OCO4)cc1 (centres undefined)
inactive: dose: 3.13 mg/kg/injection, schedule: Q04DX002 (ip), vehicle: saline 99 % of control | dose: 6.25 mg/kg/injection, schedule: Q04DX002 (ip), vehicle: saline 103 % of control

COC(=O)C1=C(C)NC(C)=C(C(=O)OC)C1c1ccc(NC(C)=O)cc1
inactive: [7] 113 % of control | [8] 111 % of control | [9] 113 % of control

Cc1nn(C(=O)c2ccncc2)c(C)c1N=Nc1ccccc1Cl
inactive: dose: 100.0 mg/kg/injection, schedule: Q04DX003 (ip), vehicle: Klucel (hydroxypropylcellulose) (HPC) 96 % of control | dose: 200.0 mg/kg/injection, schedule: Q04DX003 (ip), vehicle: Klucel (hydroxypropylcellulose) (HPC) 95 % of control | dose: 400.0 mg/kg/injection, schedule: Q04DX003 (ip), vehicle: Klucel (hydroxypropylcellulose) (HPC) 97 % of control
